# Marks after values point to notes of the source that are not given here.
# Experiments:
# [1] = rat, in vivo
# From the text: The plasma DHA fatty acid area percent and plasma EPA fatty acid area percent were determine in the rats at day 1 and day 29 (post necropsy).
# [2] = test system: male Wister rats; experiment: Effect on total cholesterol levels in rats; type: in vivo, rat; details: for Serum cholesterol, LSMEAN: least squares mean; for Serum cholesterol, mean: mean ± SD
# Description: The effect of the DHA ethyl ester of Example 2 on cholesterol levels was investigated using male Wister rats, and was compared to DHASCO-T® and Lovaza®. The rats were administered either (a) a vehicle control, (b) DHA ethyl ester (0.6 g/kg/day, 1.3 g/kg/day, 2.5 g/kg/day, or 5.0 g/kg/day), (c) DHASCO-T (5.0 g/kg/day), or (d) Lovaza (5.0 g/kg/day) for 28 days. Cholesterol levels, i.e., total cholesterol, of the rats were measured at 14 days and 28 days. Total cholesterol values shown are averages for each treatment group, i.e., actual mean values.
# The cholesterol results presented below in Table 10 are calculated from the same data set as in Table 9. Cholesterol level values shown in Table 10 are averages for each treatment group, presented as least squares mean values.
# [3] = test system: male Wister rats; experiment: Effect on triglyceride levels in high fructose diet rats; type: in vivo, rat; details: for Triglycerides, mean: oral gavage, mean ± SD; for Serum triglycerides, LSMEAN: least squares mean
# From the text: The effect of the DHA ethyl ester (DHA-EE) produced according to the method of Example 2 on triglyceride levels was investigated using male Wister rats. The DHA-EE used in this example contained DHA at about 93.6% (w/w) of the total fatty acid content of the dosage form. The effect of purified DHA-EE was compared to two different DHA-containing products: DHASCO-T® (Martek Bioscience Corporation, Columbia, Md.) and Lovaza® (Reliant Pharmaceuticals, Inc., Durham, N.C.). DHASCO-T® comprises approximately 45% DHA and 55% other fatty acids (with substantially no EPA). Lovaza® comprises approximately 41.7% DHA ethyl ester, 51.7% EPA ethyl ester, and 6.4% other fatty acids. The vehicle control comprised corn oil. 84 Wistar rats were randomized into 7 groups of 12 rats each. Each rat was administered orally a high fructose diet for 4-5 weeks to raise triglyceride levels. After 4-5 weeks, rats with a triglyceride level <300 mg/dL were excluded. Then each rat was administered either (a) a vehicle control, (b) DHA ethyl ester (0.6 g/kg/day, 1.3 g/kg/day, 2.5 g/kg/day, or 5.0 g/kg/day), (c) DHASCO-T (5.0 g/kg/day), or (d) Lovaza (5.0 g/kg/day) for 28 days by oral gavage. Diets were controlled for calories, nutrients and levels of vitamin E. Triglyceride levels of the rats were measured at 14 days and 28 days. Triglyceride values shown are averages for each treatment group, presented as actual mean values.
# The triglyceride results presented below in Table 8 are calculated from the same data set as in Table 7. Triglyceride values shown in Table 8 are averages for each treatment group, presented as least squares mean values.
# [4] = 14 day, 0.6 g/kg/day fatty acid
# [5] = 14 day, 1.3 g/kg/day fatty acid
# [6] = 14 day, 2.5 g/kg/day fatty acid
# [7] = 14 day, 5.0 g/kg/day fatty acid
# [8] = 28 day, 0.6 g/kg/day fatty acid
# [9] = 28 day, 1.3 g/kg/day fatty acid
# [10] = 28 day, 2.5 g/kg/day fatty acid
# [11] = 28 day, 5.0 g/kg/day fatty acid
smiles,measurement,setting,value
"CC/C=C\C/C=C\C/C=C\C/C=C\C/C=C\C/C=C\CCC(=O)OCC [DHA-EE, ethyl docosahexaenoate]",Plasma DHA fatty acid area percent (in words),[1],correlates with increasing dosing of DHA
same,Plasma EPA fatty acid area percent (in words),[1],does not increase in rats administered DHA-EE or DHASCO® to the same extent that it is increased in Lovaza®
same,"Serum cholesterol % of control, LSMEAN",[2]; [4],80 % of control
same,"Serum cholesterol % of control, mean",[2]; [4],79 % of control
same,"Serum cholesterol, LSMEAN",[2]; [4],72.4 mg/dL
same,"Serum cholesterol, mean",[2]; [4],72.2 ± 17.7 mg/dL
same,"Serum cholesterol % of control, LSMEAN",[2]; [5],82 % of control
same,"Serum cholesterol % of control, mean",[2]; [5],82 % of control
same,"Serum cholesterol, LSMEAN",[2]; [5],74.6 mg/dL
same,"Serum cholesterol, mean",[2]; [5],75.0 ± 24.0 mg/dL
same,"Serum cholesterol % of control, LSMEAN",[2]; [6],85 % of control
same,"Serum cholesterol % of control, mean",[2]; [6],85 % of control
same,"Serum cholesterol, LSMEAN",[2]; [6],77.4 mg/dL
same,"Serum cholesterol, mean",[2]; [6],77.6 ± 23.1 mg/dL
same,"Serum cholesterol % of control, LSMEAN",[2]; [7],75 % of control
same,"Serum cholesterol % of control, mean",[2]; [7],74 % of control
same,"Serum cholesterol, LSMEAN",[2]; [7],67.8 mg/dL
same,"Serum cholesterol, mean",[2]; [7],67.1 ± 17.9 mg/dL
same,"Serum cholesterol % of control, LSMEAN",[2]; [8],80 % of control
same,"Serum cholesterol % of control, mean",[2]; [8],80 % of control
same,"Serum cholesterol, LSMEAN",[2]; [8],80.6 mg/dL
same,"Serum cholesterol, mean",[2]; [8],80.3 ± 21.8 mg/dL
same,"Serum cholesterol % of control, LSMEAN",[2]; [9],62 % of control
same,"Serum cholesterol % of control, mean",[2]; [9],62 % of control
same,"Serum cholesterol, LSMEAN",[2]; [9],61.6† mg/dL
same,"Serum cholesterol, mean",[2]; [9],62.0 ± 16.0 mg/dL
same,"Serum cholesterol % of control, LSMEAN",[2]; [10],72 % of control
same,"Serum cholesterol % of control, mean",[2]; [10],72 % of control
same,"Serum cholesterol, LSMEAN",[2]; [10],71.3† mg/dL
same,"Serum cholesterol, mean",[2]; [10],71.5 ± 17.8 mg/dL
same,"Serum cholesterol % of control, LSMEAN",[2]; [11],60 % of control
same,"Serum cholesterol % of control, mean",[2]; [11],60 % of control
same,"Serum cholesterol, LSMEAN",[2]; [11],60.9† mg/dL
same,"Serum cholesterol, mean",[2]; [11],60.2 ± 19.3 mg/dL
same,Effect on cholesterol levels (in words),"[2]; by 14 days, even at the lowest dosage level",reduces cholesterol levels
same,"Serum triglycerides % of control, LSMEAN",[3]; [4],65 % of control
same,"Triglycerides % of control, mean",[3]; [4],67 % of control
same,"Triglycerides, mean",[3]; [4],176.5 ± 96.4 mg/dL
same,"Serum triglycerides, LSMEAN",[3]; [4],168.4† mg/dL
same,"Serum triglycerides % of control, LSMEAN",[3]; [5],67 % of control
same,"Triglycerides % of control, mean",[3]; [5],66 % of control
same,"Triglycerides, mean",[3]; [5],175.2 ± 50.6 mg/dL
same,"Serum triglycerides, LSMEAN",[3]; [5],173.6† mg/dL
same,"Serum triglycerides % of control, LSMEAN",[3]; [6],47 % of control
same,"Triglycerides % of control, mean",[3]; [6],44 % of control
same,"Triglycerides, mean",[3]; [6],115.5 ± 60.9 mg/dL
same,"Serum triglycerides, LSMEAN",[3]; [6],120.2† mg/dL
same,"Serum triglycerides % of control, LSMEAN",[3]; [7],43 % of control
same,"Triglycerides % of control, mean",[3]; [7],37 % of control
same,"Triglycerides, mean",[3]; [7],97.6 ± 47.8 mg/dL
same,"Serum triglycerides, LSMEAN",[3]; [7],110.7† mg/dL
same,"Serum triglycerides % of control, LSMEAN",[3]; [8],93 % of control
same,"Triglycerides % of control, mean",[3]; [8],95 % of control
same,"Triglycerides, mean",[3]; [8],182.7 ± 86.9 mg/dL
same,"Serum triglycerides, LSMEAN",[3]; [8],174.5 mg/dL
same,"Serum triglycerides % of control, LSMEAN",[3]; [9],60 % of control
same,"Triglycerides % of control, mean",[3]; [9],60 % of control
same,"Triglycerides, mean",[3]; [9],114.7 ± 37.2 mg/dL
same,"Serum triglycerides, LSMEAN",[3]; [9],113.1† mg/dL
same,"Serum triglycerides % of control, LSMEAN",[3]; [10],60 % of control
same,"Triglycerides % of control, mean",[3]; [10],56 % of control
same,"Triglycerides, mean",[3]; [10],107.9 ± 58.4 mg/dL
same,"Serum triglycerides, LSMEAN",[3]; [10],112.6† mg/dL
same,"Serum triglycerides % of control, LSMEAN",[3]; [11],47 % of control
same,"Triglycerides % of control, mean",[3]; [11],41 % of control
same,"Triglycerides, mean",[3]; [11],78.9 ± 46.5 mg/dL
same,"Serum triglycerides, LSMEAN",[3]; [11],87.6† mg/dL
same,Effect on triglyceride levels (in words),"[3]; at 14 days, even at the lowest dosage level (0.6 g/kg/day)",reduces triglyceride levels
same,Triglyceride levels versus control (in words),"[3]; day 28, 0.6 g DHA-EE",not significantly lower than control

# Reference: patent publication US20100130608A1, “COMPOSITIONS AND METHODS FOR REDUCING TRIGLYCERIDE LEVELS” (Martek Biosciences Corporation, priority 2008, published 2010)
